Experimental data reported in article doi:10.1101/362293v1 (biorxiv, 2018).
Substitutions are numbered along the chain they refer to.

Key:
[1] = target: T1, S. typhimurium CobB; CobB^S. typhimurium (Salmonella enterica, UniProt P0A2F2); assay: affinity measurement, method not given; format: binding
T1 sequence (P0A2F2 1-273): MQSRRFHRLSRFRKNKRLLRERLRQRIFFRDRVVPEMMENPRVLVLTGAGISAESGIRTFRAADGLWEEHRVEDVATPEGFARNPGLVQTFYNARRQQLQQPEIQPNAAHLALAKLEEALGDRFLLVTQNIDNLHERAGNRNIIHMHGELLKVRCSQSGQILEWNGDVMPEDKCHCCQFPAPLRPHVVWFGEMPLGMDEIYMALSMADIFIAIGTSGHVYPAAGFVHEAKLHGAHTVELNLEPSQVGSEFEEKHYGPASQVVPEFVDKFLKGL

CobB [2] = target: T2, CobB (Escherichia coli, UniProt P75960, R8A); assay: isothermal titration calorimetry; format: binding
T2 sequence (P75960 1-279 R8A): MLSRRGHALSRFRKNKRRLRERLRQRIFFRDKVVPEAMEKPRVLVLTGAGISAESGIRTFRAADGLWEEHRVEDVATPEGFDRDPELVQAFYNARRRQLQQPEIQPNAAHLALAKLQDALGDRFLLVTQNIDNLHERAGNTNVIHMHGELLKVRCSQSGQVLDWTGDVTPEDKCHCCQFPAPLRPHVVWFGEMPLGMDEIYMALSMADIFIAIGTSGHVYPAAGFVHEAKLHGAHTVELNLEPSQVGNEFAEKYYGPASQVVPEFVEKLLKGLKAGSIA

CobB [3] = target: T3, CobB (Escherichia coli, UniProt P75960); assay: deacetylation of an acetylated peptide, HPLC; format: biochemical
T3 sequence (P75960 1-279): T2 sequence (P75960 1-279 R8A) with A8R

CobB [4] = target: T4, CobB (Escherichia coli, UniProt P75960, R17A); assay: isothermal titration calorimetry; format: binding
T4 sequence (P75960 1-279 R17A): T2 sequence (P75960 1-279 R8A) with A8R, R17A

CobB [5] = target: T5, CobB (Escherichia coli, UniProt P75960, E21A); assay: isothermal titration calorimetry; format: binding
T5 sequence (P75960 1-279 E21A): T2 sequence (P75960 1-279 R8A) with A8R, E21A

CobB [6] = target: T3, CobB; assay: isothermal titration calorimetry; format: binding

Kd [1]: 15.5 µM
Kd (CobB [2]): 1.8 mM
Ki (CobB [3]): 32.3 µM
Kd (CobB [4]): 1.6 mM
Kd (CobB [5]): 320 µM
Kd (CobB [6]): 21.6 µM
Compound: Nc1nc2c(ncn2[C@@H]2O[C@@H]3CO[P@](=O)(O)O[C@H]4[C@@H](O)[C@H](n5cnc6c(=O)[nH]c(N)nc65)O[C@@H]4CO[P@](=O)(O)O[C@H]3[C@H]2O)c(=O)[nH]1 [c-di-GMP]
